pEC50: −log10 of the molar value. Values after ≈ are worked out from the molar mass of the structure shown. Read-outs that look alike come from different tables or passages of the source.
Experiments:
[1] = test system: Herpes simplex virus type 1 (HSV-1); experiment: Antiviral activity against HSV-1, viral plaque reduction (ED50); assay type: cell-based
Procedure: Infected cells were treated with different concentrations of MMdCyd and the concentration required to reduce viral plaque formation by 50%, i.e. ED50, was determined.
^a ED50 : Concentration required to reduce viral plaque formatio
Vero cells were infected with the KOS strain of HSV-1. The compound of compounds indicated in Table 2, below, and are shown graphically in FIGS. 1, (H4 dUrd) and 2 (H4 Urd).
^a Antiviral assays were carried out using Vero cells. All compounds
were added immediately after virus infection.
The antiviral activity of MMdCyd in the presence of H4 dUrd was determined against several strains of HSV-1 and HSV-2.
Vero cells were infected with HSV-1, strain 76 and treated with MMdCyd at different times post virus infection.
The antiviral activity, ^a cyctotoxicity* and antiviral indices of MMdCyd in the presence of H4 dUrd, dGuo and H4 dUrd+dGuo were determined.
^a Antiviral assays were carried out using Vero cells. Compounds were
added immediately after virus infection. Virus HSV1, strains KOS and 76;
KOS, virus input = 50 PFU

[2] = Inhibition of proliferation (MTC), MOLT/4F cells; assay type: cell-based; details: human, highest concentration tested
Procedure: (§1) Inhibitory effects of MMdCyd on the proliferation of murine and human tumor cells was also investigated. MTC for MMdCyd was greater than 400 μg/ml (highest concentration tested) against Raji, MOLT/4F, MT4, CEM and H-9 (human) and L1210 (murine Leukemia) cells.

[3] = Cytotoxicity (MTC), HEP-2 cells; assay type: cell-based; details: human, read-out: minimum cytotoxic concentration (MTC)
Procedure: Minimum cytotoxic concentrations (MTC) for MMdCyd was greater than 1,000 μg/ml for RK-13, HEP-2 and Vero cells.
^c MTC = Minimum toxic concentration concentration required to
produce definite evidence of microscopic toxicity on confluent monolayer

[4] = Inhibition of proliferation (MTC), L1210 cells; assay type: cell-based, murine; details: mouse, highest concentration tested
Procedure: as §1

[5] = Inhibition of proliferation (MTC), MT4 cells; assay type: cell-based; details: human, highest concentration tested
Procedure: as §1

What does the source list for `COCc1cn([C@H]2C[C@H](O)[C@@H](CO)O2)c(=O)nc1N` [MMdCyd, 5-methoxymethyl-2'-deoxycytidine]?
ED50 [1]: 6 to 12 µg/mL; ED50 ([1]; FIG. 6, after preincubating cells 3 hours with 25 μm dUrd, then washing): 21 µg/mL (≈ 77.4 µM); ED50 ([1]; FIG. 6, with 25 μM dUrd added simultaneously): 38 µg/mL (≈ 140 µM); pEC50 ([1]; HSV-1 76, Vero, 50 PFU, added 4 hours post infection, read-out: ED50 (the source's name)): 4.55; pEC50 ([1]; HSV-1 76, Vero, 50 PFU, added 6 hours post infection, read-out: ED50 (the source's name)): 4.49; pEC50 ([1]; HSV-1 (strain cell empty, under NAH), RK-13, 10 PFU, read-out: ED50 (the source's name)): 5.52; pEC50 ([1]; HSV-1, Vero and HEP-2 cells, read-out: ED50 (the source's name)): 4.59 to 4.85; pEC50 ([1]; HSV-1 KOS, Vero, 20 PFU, read-out: ED50 (the source's name)): 4.85; pEC50 ([1]; HSV-1 KOS, Vero, 50 PFU, read-out: ED50 (the source's name)): 4.59; pEC50 ([1]; HSV-1 NAH, Vero, 50 PFU, read-out: ED50 (the source's name)): 4.18; activity against thymidine kinase negative strain ([1]; HSV--TK^-): lack of activity; ED50, average value ([1]; Table 11, Vero, HSV-1 KOS and 76, 50-100 PFU, H4 dUrd 12 μg/ml, dGuo 25-30 μg/ml, average): 8 µg/mL (≈ 29.5 µM); A.I (antiviral index, MTC divided by ED50) ([1]; monkey, vero cells): > 125; pEC50 ([1]; read-out: ED50, HSV-1 TK, Vero, 10 PFU, highest concentration tested): < 3.08; pEC50 ([1]; read-out: ED50, HSV-1 TK, Vero, 50 PFU, highest concentration tested): < 3.08; antiherpes activity ([1]; summary statement): potent and selective antiherpes agent; ED50 on delayed treatment compared with one hour post virus infection ([1]; treatment delayed 4 to 6 hours post infection): essentially similar; MCC [2]: > 400 µg/mL; MCC [3]: > 1000 µg/mL; MCC [4]: > 400 µg/mL; MCC [5]: > 400 µg/mL

From patent US4990499A, “Anti-herpes simplex virus activity of 5-alkoxymethyl-2'-deoxycytidimes and their 5-monophosphates” (priority 1989, dated 1991)
